The target in one data set is T1, human GLP2 receptor (Homo sapiens, UniProt O95838).
T1 construct: expressed in transfected cells; host or cells: HEK cells, BacMam virus transduction
T1 sequence (O95838 1-553): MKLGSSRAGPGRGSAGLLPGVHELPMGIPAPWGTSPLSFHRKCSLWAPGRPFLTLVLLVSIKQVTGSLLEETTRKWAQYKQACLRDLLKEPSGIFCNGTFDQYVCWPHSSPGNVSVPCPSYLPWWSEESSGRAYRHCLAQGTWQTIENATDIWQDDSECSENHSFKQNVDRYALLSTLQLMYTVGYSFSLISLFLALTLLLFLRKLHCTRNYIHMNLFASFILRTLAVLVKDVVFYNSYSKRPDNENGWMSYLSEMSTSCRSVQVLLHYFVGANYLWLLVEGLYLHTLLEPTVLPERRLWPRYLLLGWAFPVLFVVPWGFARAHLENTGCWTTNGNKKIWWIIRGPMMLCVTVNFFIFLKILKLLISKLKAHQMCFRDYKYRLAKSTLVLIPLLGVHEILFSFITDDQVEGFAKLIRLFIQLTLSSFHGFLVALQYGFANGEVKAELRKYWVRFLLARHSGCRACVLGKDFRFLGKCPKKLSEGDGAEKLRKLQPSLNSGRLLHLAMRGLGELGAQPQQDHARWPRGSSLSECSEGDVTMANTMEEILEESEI
The experiment in a line: cAMP accumulation assay, functional agonism of human GLP2 receptor. The data set is classed as cell-based. As to conditions: HEK cells infected with human GLP2 receptor BacMam virus, HTRF cAMP; for Emax: HEK293, read-out: Human GLP-2R agonist cAMP Emax; for EC50: read-out: Human GLP-2R agonist cAMP pEC50 (converted). The gist of the method:
(§1)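 Frozen HEK cells, previously BacMam-infected 24 h to express either receptor, are stimulated for 45 min at 37° C in IBMX-containing (0.5 mM) HBSS. The reaction is then terminated with HTRF reagents in lysis buffer.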

In another data set the target is T2, human GLP1 receptor (Homo sapiens, UniProt P43220).
T2 construct: expressed in transfected cells; host or cells: HEK cells, BacMam virus transduction
T2 sequence (P43220 24-463): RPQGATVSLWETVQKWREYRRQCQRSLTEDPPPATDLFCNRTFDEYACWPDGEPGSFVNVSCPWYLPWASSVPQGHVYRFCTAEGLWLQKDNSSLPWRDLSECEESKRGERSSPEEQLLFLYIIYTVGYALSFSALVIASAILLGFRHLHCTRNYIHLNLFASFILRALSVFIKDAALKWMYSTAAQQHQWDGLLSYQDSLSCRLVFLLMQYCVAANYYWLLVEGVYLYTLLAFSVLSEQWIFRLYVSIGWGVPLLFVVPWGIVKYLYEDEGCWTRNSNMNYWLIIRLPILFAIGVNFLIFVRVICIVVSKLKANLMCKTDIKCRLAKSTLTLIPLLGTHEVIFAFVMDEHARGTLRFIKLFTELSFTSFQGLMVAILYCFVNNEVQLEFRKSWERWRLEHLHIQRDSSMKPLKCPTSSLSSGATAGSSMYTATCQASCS
The experiment in a line: cAMP accumulation assay, functional agonism of human GLP1 receptor. The data set is classed as cell-based. As to conditions: HEK cells infected with human GLP1 receptor BacMam virus, HTRF cAMP; for Emax: HEK293, read-out: Human GLP-1R agonist cAMP Emax; for EC50: read-out: Human GLP-1R agonist cAMP pEC50 (converted). The gist of the method: as §1
On the technique in general: cAMP levels reflect the balance of adenylyl cyclase and phosphodiesterase activity.

Another data set concerns the target T3, mouse GLP2 receptor (Mus musculus, UniProt Q5IXF8).
T3 construct: expressed in transfected cells; host or cells: HEK cells, transient transfection with GeneJuice
T3 sequence (Q5IXF8 1-512): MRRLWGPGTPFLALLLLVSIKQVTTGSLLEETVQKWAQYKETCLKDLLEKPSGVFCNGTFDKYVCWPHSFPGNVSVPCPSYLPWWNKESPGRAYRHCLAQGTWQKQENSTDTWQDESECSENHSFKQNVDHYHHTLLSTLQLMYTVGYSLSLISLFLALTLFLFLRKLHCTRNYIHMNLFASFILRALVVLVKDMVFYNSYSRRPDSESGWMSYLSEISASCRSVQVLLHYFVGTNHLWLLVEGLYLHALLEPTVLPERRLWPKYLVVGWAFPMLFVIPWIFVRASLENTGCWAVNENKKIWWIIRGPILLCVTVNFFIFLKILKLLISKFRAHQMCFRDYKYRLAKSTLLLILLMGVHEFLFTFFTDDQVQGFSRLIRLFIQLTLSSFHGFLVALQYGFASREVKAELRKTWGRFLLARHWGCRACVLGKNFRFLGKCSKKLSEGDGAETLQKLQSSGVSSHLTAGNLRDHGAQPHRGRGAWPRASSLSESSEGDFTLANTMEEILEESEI
The experiment in a line: cAMP accumulation assay, functional agonism of mouse GLP2 receptor. In kind it is cell-based. The conditions noted are these: HEK cells transiently transfected with mouse GLP2 receptor, HTRF cAMP; for Emax: HEK293, read-out: Mouse GLP-2R agonist cAMP Emax; for EC50: read-out: Mouse GLP-2R agonist cAMP pEC50 (converted). The gist of the method: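 Transiently transfected HEK cells (24 h, frozen, 8000/well) in HBSS with 0.5 mM IBMX exposed to compound concentration series for 45 min at 37 °C. cAMP measured by HTRF after lysis and 1 h at RT; pEC50 from four-parameter concentration-response fit.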

The target in a further data set is T4, mouse GLP1 receptor (Mus musculus, UniProt O35659).
T4 construct: expressed in transfected cells; host or cells: HEK cells, transient transfection with GeneJuice
T4 sequence (O35659 22-463): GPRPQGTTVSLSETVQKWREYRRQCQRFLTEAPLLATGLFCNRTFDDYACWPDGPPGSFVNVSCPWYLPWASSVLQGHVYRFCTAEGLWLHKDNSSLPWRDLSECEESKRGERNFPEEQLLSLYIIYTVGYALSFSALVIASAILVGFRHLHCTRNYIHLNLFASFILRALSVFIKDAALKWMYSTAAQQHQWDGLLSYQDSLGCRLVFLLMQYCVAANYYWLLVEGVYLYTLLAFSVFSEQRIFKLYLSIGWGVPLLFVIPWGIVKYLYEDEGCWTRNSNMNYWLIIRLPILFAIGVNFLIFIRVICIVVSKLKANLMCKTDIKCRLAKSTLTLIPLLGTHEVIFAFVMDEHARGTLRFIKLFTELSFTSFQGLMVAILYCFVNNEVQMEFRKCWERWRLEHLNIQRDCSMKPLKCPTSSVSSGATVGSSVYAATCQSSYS
Description: cAMP accumulation assay, functional agonism of mouse GLP1 receptor. As to conditions: HEK cells transiently transfected with mouse GLP1 receptor, HTRF cAMP; for Emax: HEK293, read-out: Mouse GLP-1R agonist cAMP Emax; for EC50: read-out: Mouse GLP-1R agonist cAMP pEC50 (converted). In kind it is cell-based.

Data set [1] is described as follows: Stability of peptides in Fasted-State Simulated Intestinal Fluid (FaSSIF). The data set is classed as in vitro ADME. The conditions noted are these: FaSSIF with 10 mg/ml pancreatin; FaSSIF pH 6.5 with 10 mg/ml pancreatin, 37° C., t = 15 mins.
Description: Stability of peptides was tested in Fasted-State Simulated Intestinal Fluid (FaSSIF) prepared according to manufacturer's protocol (Biorelevant, art.no. FFF01, pH 6.5). […] FaSSIF was pre-incubated for 15 min at 37° C. and spiked with test and reference item working solutions. Experiments were conducted in duplicate in a non-serial manner. The total incubation volume per replicate was 150 μl. Sampling time points for test items were 0, 0.5, 2, 5, 10, 15 and 30 min. All samples and calibration standards (prepared in FaSSIF) were precipitated by addition of 300 μl precipitant (ACN / 2% acetic acid / 0.2% HFBA, (precipitation reagent, PR)) containing internal standard (ISTD) to 150 μl sample. After incubation for 1 h at room temperature all samples were centrifuged for 10 min at 2,200×g (room temperature).

These results are taken from patent publication US20240270809A1, “ORAL GLP RECEPTOR AGONISTS” (priority 2020, published 2024).

Positions of bridges follow the written chain, without caps; N, C: chain ends. Non-standard residues stand in square brackets, D forms with d. Residues, ends and D or L forms follow the SMILES beside them. Nle = CCCC[C@H](N)C(=O)O; Aib = CC(C)(N)C(=O)O

Description for mouse GLP1 receptor: CAMP production upon agonist stimulation of mouse GLP2 or GLP1 receptors was assessed utilizing HiRange cAMP kit (Cisbio). In brief, HEK cells were transiently transfected for 24 hours with cDNA using GeneJuice Transfection reagent (EMD Millipore) and frozen at −80° C. for later use in the assay. […] Cells were prepared in the assay buffer (HBSS (Lonza) supplemented with 0.5 mM IBMX (Tocris)). After 45 min incubation at 37° C., the reaction was stopped by addition of the HTRF detection reagents in the lysis buffer provided in the kit. Following 1-hour incubation at RT, plates were read on Pherastar FS (BMG Labtech, Inc.) using standard HTRF settings. Dotmatics Studies software was used for calculation of pEC50 values by fitting data to a four-parameter concentration response curve.

As to `CCCC[C@H](NC(=O)[C@H](CCC(=O)O)NC(=O)[C@H](CC(=O)O)NC(=O)[C@H](CO)NC(=O)[C@H](Cc1ccccc1)NC(=O)[C@H](CO)NC(=O)CNC(=O)[C@H](CC(=O)O)NC(=O)C(C)(C)NC(=O)[C@@H](N)Cc1c[nH]cn1)C(=O)N[C@H](Cc1ccccc1)C(=O)N[C@H]1CCCCNC(=O)C[C@@H](C(=O)N[C@@H](CCCCN)C(=O)N[C@@H](C)C(=O)N[C@@H](C)C(=O)N[C@@H](CCCCN)C(=O)N[C@@H](CC(=O)O)C(=O)N[C@@H](Cc2ccccc2)C(=O)N[C@H](C(=O)N[C@@H](CC(N)=O)C(=O)N[C@@H](Cc2c[nH]c3ccccc23)C(=O)N[C@@H](CC(C)C)C(=O)N[C@H](C(=O)N[C@@H](CCC(N)=O)C(=O)N[C@H](C(=O)N[C@@H](CCCCN)C(=O)N[C@H](C(=O)N[C@H](C(=O)N[C@@H](CC(=O)O)C(N)=O)[C@@H](C)O)[C@@H](C)CC)[C@@H](C)O)[C@@H](C)CC)[C@@H](C)CC)NC(=O)[C@H](CC(=O)O)NC(=O)[C@H](CC(C)C)NC(=O)[C@H]([C@@H](C)CC)NC1=O` [Example 88] (H-H[Aib]DGSFSDE[Nle][dF]KILDDKAAKDFINWLIQTKITD-NH2; lactam 12-16), the Emax (usually the greatest response seen or fitted, relative to the assay's reference) amounted to 102% at human GLP2 receptor, 99.2% at human GLP1 receptor, 98.7% on mouse GLP2 receptor and 96.4% at mouse GLP1 receptor. Further, the EC50 is 0.00316 nM on human GLP2 receptor, 1.26 nM at human GLP1 receptor, 0.00631 nM at mouse GLP2 receptor and 0.1 nM at mouse GLP1 receptor. The share remaining (usually what is left of the initial amount, in per cent) at 0.25 h in data set [1] is 0.5%.

Take `CCCC[C@H](NC(=O)[C@H](CCC(=O)O)NC(=O)[C@H](CC(=O)O)NC(=O)[C@H](CO)NC(=O)[C@H](Cc1ccccc1)NC(=O)[C@H](CO)NC(=O)CNC(=O)[C@H](CC(=O)O)NC(=O)C(C)(C)NC(=O)[C@@H](N)Cc1c[nH]cn1)C(=O)N[C@H](Cc1ccccc1)C(=O)N[C@H](C(=O)N[C@H](C(=O)N[C@@H](CC(C)C)C(=O)N[C@@H](CC(=O)O)C(=O)N[C@H]1CCC(=O)NCCCC[C@@H](C(=O)N[C@@H](CC(=O)O)C(=O)N[C@@H](Cc2ccccc2)C(=O)N[C@H](C(=O)N[C@@H](CC(N)=O)C(=O)N[C@@H](Cc2c[nH]c3ccccc23)C(=O)N[C@@H](CC(C)C)C(=O)N[C@H](C(=O)N[C@@H](CCC(N)=O)C(=O)N[C@H](C(=O)N[C@@H](CCCCN)C(=O)N[C@H](C(=O)N[C@H](C(=O)N[C@@H](CC(=O)O)C(N)=O)[C@@H](C)O)[C@@H](C)CC)[C@@H](C)O)[C@@H](C)CC)[C@@H](C)CC)NC(=O)[C@H](C)NC(=O)[C@H](C)NC(=O)[C@H](CCCCN)NC1=O)[C@@H](C)CC)[C@@H](C)O` [Example 89] (H-H[Aib]DGSFSDE[Nle][dF]TILDEKAAKDFINWLIQTKITD-NH2; lactam 16-20 (inferred); C-terminus assumed): the Emax at human GLP2 receptor came to 102%; at human GLP1 receptor, 99.6%; at mouse GLP2 receptor, 98.4%; on mouse GLP1 receptor it was 94.5%. The EC50 was 0.00251 nM on human GLP2 receptor, 3.16 nM on human GLP1 receptor, 0.00631 nM on mouse GLP2 receptor and 0.794 nM on mouse GLP1 receptor. Besides, the fraction remaining at 0.25 h in data set [1] was 10.5%.

On to `CCCC[C@H](NC(=O)[C@H](CCC(=O)O)NC(=O)[C@H](CC(=O)O)NC(=O)[C@H](CO)NC(=O)[C@H](Cc1ccccc1)NC(=O)[C@H](CO)NC(=O)CNC(=O)[C@H](CC(=O)O)NC(=O)C(C)(C)NC(=O)[C@@H](N)Cc1c[nH]cn1)C(=O)N[C@H](Cc1ccccc1)C(=O)N[C@H](C(=O)N[C@H](C(=O)N[C@@H](CC(C)C)C(=O)N[C@@H](CC(=O)O)C(=O)N[C@@H](CC(C)C)C(=O)N[C@@H](CCCCN)C(=O)N[C@@H](C)C(=O)N[C@@H](C)C(=O)N[C@@H](CCCCN)C(=O)N[C@@H](CC(=O)O)C(=O)N[C@@H](Cc1ccccc1)C(=O)N[C@H](C(=O)N[C@@H](CC(N)=O)C(=O)N[C@@H](Cc1c[nH]c2ccccc12)C(=O)N[C@@H](CC(C)C)C(=O)N[C@H](C(=O)N[C@@H](CCC(N)=O)C(=O)N[C@H]1CCCCNC(=O)CC[C@@H](C(N)=O)NC(=O)[C@H]([C@@H](C)O)NC(=O)[C@H]([C@@H](C)CC)NC(=O)[C@H](CCCCN)NC1=O)[C@@H](C)CC)[C@@H](C)CC)[C@@H](C)CC)[C@@H](C)O` [Example 93] (H-H[Aib]DGSFSDE[Nle][dF]TILDLKAAKDFINWLIQKKITE-NH2; lactam 29-33; N-terminus and C-terminus assumed), for which the Emax at human GLP2 receptor is 98.6%; on human GLP1 receptor, 95.3%; at mouse GLP2 receptor, 98.5%; on mouse GLP1 receptor, 95.5%. In addition, the EC50 on human GLP2 receptor was 0.00501 nM; at human GLP1 receptor, 3.98 nM; on mouse GLP2 receptor it was 0.251 nM; at mouse GLP1 receptor, 2.51 nM. The amount remaining at 0.25 h in data set [1] was 13.5%.

Regarding `CCCC[C@H](NC(=O)[C@H](CCC(=O)O)NC(=O)[C@H](CC(=O)O)NC(=O)[C@H](CO)NC(=O)[C@H](Cc1ccccc1)NC(=O)[C@H](CO)NC(=O)CNC(=O)[C@H](CC(=O)O)NC(=O)C(C)(C)NC(=O)[C@@H](N)Cc1c[nH]cn1)C(=O)N[C@H](Cc1ccccc1)C(=O)N[C@H](C(=O)N[C@H](C(=O)N[C@@H](CC(C)C)C(=O)N[C@@H](CC(=O)O)C(=O)N[C@H]1CCCCNC(=O)CC[C@@H](C(=O)N[C@@H](CC(=O)O)C(=O)N[C@@H](Cc2ccccc2)C(=O)N[C@H](C(=O)N[C@@H](CC(N)=O)C(=O)N[C@@H](Cc2c[nH]c3ccccc23)C(=O)N[C@@H](CC(C)C)C(=O)N[C@H](C(=O)N[C@@H](CCC(N)=O)C(=O)N[C@H]2CCCCNC(=O)CC[C@@H](C(N)=O)NC(=O)[C@H]([C@@H](C)O)NC(=O)[C@H]([C@@H](C)CC)NC(=O)[C@H](CCCCN)NC2=O)[C@@H](C)CC)[C@@H](C)CC)NC(=O)[C@H](C)NC(=O)[C@H](C)NC(=O)[C@H](CCCCN)NC1=O)[C@@H](C)CC)[C@@H](C)O` [Example 113] (H-H[Aib]DGSFSDE[Nle][dF]TILDKKAAEDFINWLIQKKITE-NH2; lactam 16-20, 29-33; C-terminus assumed), the Emax on human GLP2 receptor stood at 101%; at human GLP1 receptor, 97%; on mouse GLP2 receptor it was 99.2%; at mouse GLP1 receptor, 96.3%. Besides, the EC50 at human GLP2 receptor was 0.00316 nM; at human GLP1 receptor, 2 nM; on mouse GLP2 receptor it was 0.2 nM; on mouse GLP1 receptor it was 1.58 nM. The amount remaining at 0.25 h in data set [1] is 3.4%.
